Legend:
DRB4 = target: T1, DRB4 (Homo sapiens, UniProt P01903+P13762); assay: HLA-DR peptide binding assay (competition), DRB4
T1 construct: endogenous in cells

DR1 = target: T2, DR1 (Homo sapiens, UniProt P01903+P01911, A100R/D57E/F55L/F60I/F76Y/I96L/L162R/M171V/P40L/Q125E/R42F/V115G/Y59C); assay: HLA-DR peptide binding assay (competition with biotinylated peptide on purified HLA-DR molecules), DR1
T2 construct: endogenous in cells

DRB5 = target: T3, DRB5 (Homo sapiens, UniProt P01903+Q30154); assay: HLA-DR peptide binding assay (competition), DRB5
T3 construct: endogenous in cells

DR11 = assay: HLA-DR peptide binding assay (competition), DR11; set-up: species or system human
CD4+ T cell clone 3 = assay: Recognition assay with peptides: IFN-γ production (ELISA) by CD4+ T cell clone 3 co-cultured with peptide-pulsed EBV-B cells; format: cell-based, human; conditions: for IFN-γ production clone 3: 2 h with 5 μg/ml peptide, overnight co-culture
Method: (§1) Recognition assays with peptides. Peptides were synthesized on solid phase using Fmoc for transient NH2-terminal protection and were characterized using mass spectrometry. All peptides were >90% pure, as indicated by analytical HPLC. Lyophilized peptides were dissolved at 5 mg/ml in 10 mM acetic acid and 10% DMSO, and stored at −20° C. EBV-B cells were distributed at 20,000 cells per round-bottomed microwell and incubated for 2 h at 37° C. in the presence of the different peptides, the indicated concentrations representing their concentrations during the incubation step. CD4^+ T lymphocytes (5,000) were added in 100 μl of complete IMDM (Gibco BRL) medium supplemented with IL-2 (25 U/ml). Supernatants were harvested after 20 h of co-culture and IFN-γ production was measured by ELISA. The peptides used in FIG. 6 correspond to the MAGE-1260-275, MAGE-2267-282, MAGE-3267-282, MAGE-4268-283, MAGE-6267-282, MAGE-10292-307, MAGE-11270-285, and MAGE-12267-282 protein sequences.
(§2) We tested for recognition by each of the three clones autologous EBV-B cells pulsed with a set of peptides of 16 amino acids, overlapping by 12 residues and covering the complete MAGE-3 sequence. DDHK2 EBV-B cells were distributed in microwells (2×10^4 cells) and incubated for 2 h with the indicated concentrations of peptides. 5×10^3 cells from each autologous CD4^+ T cell clone were added and the presence of IFN-γ in the supernatant was measured by ELISA after overnight co-culture. The results shown in FIG. 6 represent the average of triplicate co-cultures.

DRB3 = target: T4, DRB3 (Homo sapiens, UniProt P01903+P79483); assay: HLA-DR peptide binding assay (competition), DRB3
T4 construct: endogenous in cells

CD4+ T cell clone 2 = assay: Recognition assay with peptides: IFN-γ production (ELISA) by CD4+ T cell clone 2 co-cultured with peptide-pulsed EBV-B cells; format: cell-based, human; conditions: for IFN-γ production clone 2: 2 h with 5 μg/ml peptide, overnight co-culture
Method: as §1, §2

DR4 = target: T5, DR4 (Homo sapiens, UniProt P01903+P01911, A100K/A169T/F76Y/I96L/K127E/L162R/M171V/N62H/P40V/Q125Y/R42H/S133A/S149N/S66Y/V115G/V209L/W38E); assay: HLA-DR peptide binding assay (competition), DR4
T5 construct: endogenous in cells

DR3 = target: T6, DR3 (Homo sapiens, UniProt P01903+P01911, A100K/A102G/A103R/A169T/F55Y/I96L/K41T/L162R/M171V/P40S/Q125H/Q178H/Q39Y/R42S/S66N/T106N/T262R/W38E/Y61H); assay: HLA-DR peptide binding assay (competition), DR3
T6 construct: endogenous in cells

DR15 = target: T7, DR15 (Homo sapiens, UniProt P01903+P01911); assay: HLA-DR peptide binding assay (competition), DR15
T7 construct: endogenous in cells

DR7 = assay: HLA-DR peptide binding assay (competition), DR7; set-up: species or system human
DR13 = assay: HLA-DR peptide binding assay (competition), DR13; set-up: species or system human
[1] = ratio lower than 10 = high affinity, higher than 10 = intermediate binder
[2] = EBV-B cell line DDHK2 (DR1 DR15 DR51, DR1 positive)
[3] = EBV-B cell line LB650 (DR7 DR15 DR51 DR53, DR1 negative)
[4] = EBV-B cell line LB831 (DR1 DR7 DR53, DR1 positive)
[5] = EBV-B cell line LB1158 (DR1 DR13 DR52, DR1 positive)
[6] = EBV-B cell line LB1856 (DR15, DR1 negative)
[7] = EBV-B cell line LB1870 (DR15 DR53 DR7, DR1 negative)
[8] = EBV-B cell line LB2095 (DR13 DR15 DR51 DR52, DR1 negative)
[9] = EBV-B cell line LB2138 (DR1 DR13, DR1 positive)
[10] = FIG. 6, set of 16 amino acid peptides overlapping by 12 residues

Compound: CC(C)C[C@H](NC(=O)[C@H](C)NC(=O)[C@H](CCCNC(=N)N)NC(=O)[C@@H]1CCCN1C(=O)CNC(=O)[C@H](Cc1c[nH]c2ccccc12)NC(=O)[C@H](CC(C)C)NC(=O)[C@H](Cc1ccccc1)NC(=O)[C@H](CCC(=O)O)NC(=O)[C@H](Cc1ccc(O)cc1)NC(=O)[C@H](CS)NC(=O)[C@H](C)N)C(=O)N[C@H](C(=O)N[C@@H](CCC(=O)O)C(=O)N[C@H](C(=O)N[C@@H](CO)C(=O)O)[C@@H](C)O)C(C)C
- Ratios IC50 MAGE-3/IC50 reference (DRB4): 70
- binding to purified HLA-DR molecules (in words) (DRB4; DRB4, competition assay): bound
- Ratios IC50 MAGE-3/IC50 reference (DR1): 0.2
- binding to purified HLA-DR molecules (in words) (DR1; DR1, competition assay): very high affinity
- Ratios IC50 MAGE-3/IC50 reference (DRB5): 11
- binding to purified HLA-DR molecules (in words) (DRB5; DRB5, competition assay): bound
- binding to purified HLA-DR molecules (in words) (DR11; competition assay): bound
- IC50 (DR11; competition with biotinylated HA 306-318 20 nM, pH 5, ± standard deviation, read-out: IC50 (nM) of MAGE-3267-282): 150 nM
- Ratios IC50 MAGE-3/IC50 reference (DR11; [1]): 6
- IFN-γ production clone 3 (CD4+ T cell clone 3; [2]): >4,000 pg/ml
- IFN-γ production clone 3 (CD4+ T cell clone 3; [3]): 150 pg/mL
- IFN-γ production clone 3 (CD4+ T cell clone 3; [4]): 1,371 pg/ml
- IFN-γ production clone 3 (CD4+ T cell clone 3; [5]): 1,698 pg/ml
- IFN-γ production clone 3 (CD4+ T cell clone 3; [6]): 164 pg/mL
- IFN-γ production clone 3 (CD4+ T cell clone 3; [7]): 119 pg/mL
- IFN-γ production clone 3 (CD4+ T cell clone 3; [8]): 125 pg/mL
- IFN-γ production clone 3 (CD4+ T cell clone 3; [9]): 2,053 pg/ml
- most efficiently recognized peptide for clone 3 (CD4+ T cell clone 3; FIG. 6, comparison with shorter peptides): most efficiently recognized peptide
- production of IFN-γ by clone 3 stimulated by peptide-pulsed autologous EBV-B cells (CD4+ T cell clone 3; [10]): stimulated the production of IFN-γ
- recognition by clone 3 of peptide-loaded autologous EBV-B cells in the presence of anti-HLA-DR, -DP or -DQ antibodies (CD4+ T cell clone 3; data not shown): abolished by an anti-HLA-DR antibody, but not by antibodies against HLA-DP or HLA-DQ
- binding to purified HLA-DR molecules (in words) (DRB3; competition assay): No binding was observed
- IC50 (DRB3; competition with biotinylated LOL 191-210 5 nM, pH 5.5, read-out: IC50 (nM) of MAGE-3267-282): > 10000 nM
- IFN-γ production clone 2 (CD4+ T cell clone 2; [2]): >4,000 pg/ml
- IFN-γ production clone 2 (CD4+ T cell clone 2; [3]): 160 pg/mL
- IFN-γ production clone 2 (CD4+ T cell clone 2; [4]): 1,418 pg/ml
- IFN-γ production clone 2 (CD4+ T cell clone 2; [5]): 2,029 pg/ml
- IFN-γ production clone 2 (CD4+ T cell clone 2; [6]): 187 pg/mL
- IFN-γ production clone 2 (CD4+ T cell clone 2; [7]): 104 pg/mL
- IFN-γ production clone 2 (CD4+ T cell clone 2; [8]): 172 pg/mL
- IFN-γ production clone 2 (CD4+ T cell clone 2; [9]): 2,046 pg/ml
- production of IFN-γ by clone 2 stimulated by peptide-pulsed autologous EBV-B cells (CD4+ T cell clone 2; [10]): stimulated the production of IFN-γ
- recognition by clone 2 of peptide-loaded autologous EBV-B cells in the presence of anti-HLA-DR, -DP or -DQ antibodies (CD4+ T cell clone 2; data not shown): abolished by an anti-HLA-DR antibody, but not by antibodies against HLA-DP or HLA-DQ
- Ratios IC50 MAGE-3/IC50 reference (DR4): 18
- binding to purified HLA-DR molecules (in words) (DR4; DR4, competition assay): bound
- binding to purified HLA-DR molecules (in words) (DR3; competition assay): No binding was observed
- IC50 (DR3; competition with biotinylated MT 2-16 100 nM, pH 4.5, read-out: IC50 (nM) of MAGE-3267-282): > 10000 nM
- Ratios IC50 MAGE-3/IC50 reference (DR15): 15
- binding to purified HLA-DR molecules (in words) (DR15; DR15, competition assay): bound
- binding to purified HLA-DR molecules (in words) (DR7; competition assay): bound
- IC50 (DR7; competition with biotinylated YKL 10 nM, pH 5, ± standard deviation, read-out: IC50 (nM) of MAGE-3267-282): 1200 nM
- Ratios IC50 MAGE-3/IC50 reference (DR7; [1]): 120
- binding to purified HLA-DR molecules (in words) (DR13; competition assay): No binding was observed
- IC50 (DR13; competition with biotinylated B1 21-36 200 nM, pH 4.5, read-out: IC50 (nM) of MAGE-3267-282): > 10000 nM

Source: patent publication US7388072B2, “MAGE peptides presented by HLA class II molecules” (priority 2001, dated 2008)
